Assay results reported in ChEMBL document CHEMBL1149219, “Binding of beta-carbolines at imidazoline I2 receptors: a structure-affinity investigation” (Bioorg Med Chem Lett, 2004).

How the values were obtained:
[1] = biological target: T1, Adrenergic receptor alpha-2 (Rattus norvegicus, UniProt P22086+P19328+P22909); assay: Binding affinity at alpha-2 adrenergic receptors of rat.; type: protein assay
T1 sequence (P22086 whole entry): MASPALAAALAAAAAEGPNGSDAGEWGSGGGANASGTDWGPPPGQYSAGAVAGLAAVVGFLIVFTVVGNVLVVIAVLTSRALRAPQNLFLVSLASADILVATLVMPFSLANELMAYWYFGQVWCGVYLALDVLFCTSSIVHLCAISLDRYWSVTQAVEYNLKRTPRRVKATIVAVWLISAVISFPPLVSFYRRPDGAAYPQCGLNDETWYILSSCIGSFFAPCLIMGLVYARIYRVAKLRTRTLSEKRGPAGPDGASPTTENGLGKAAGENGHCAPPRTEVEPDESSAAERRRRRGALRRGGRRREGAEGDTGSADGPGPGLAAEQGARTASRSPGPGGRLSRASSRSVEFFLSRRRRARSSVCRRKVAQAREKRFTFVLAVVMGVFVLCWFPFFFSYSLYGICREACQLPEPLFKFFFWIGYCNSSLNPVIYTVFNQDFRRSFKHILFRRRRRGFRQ
T1 sequence (P19328 whole entry): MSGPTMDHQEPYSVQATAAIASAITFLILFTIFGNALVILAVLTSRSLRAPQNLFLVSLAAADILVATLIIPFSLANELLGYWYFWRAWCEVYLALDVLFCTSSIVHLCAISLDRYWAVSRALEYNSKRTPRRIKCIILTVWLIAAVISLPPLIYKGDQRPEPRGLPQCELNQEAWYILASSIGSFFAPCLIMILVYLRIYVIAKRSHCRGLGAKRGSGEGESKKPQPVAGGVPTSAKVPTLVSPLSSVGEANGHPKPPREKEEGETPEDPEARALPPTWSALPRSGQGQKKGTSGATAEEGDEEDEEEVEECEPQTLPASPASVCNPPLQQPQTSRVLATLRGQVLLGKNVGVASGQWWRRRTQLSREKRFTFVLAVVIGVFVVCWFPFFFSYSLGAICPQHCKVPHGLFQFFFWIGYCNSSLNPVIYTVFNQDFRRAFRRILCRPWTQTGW
T1 sequence (P22909 whole entry): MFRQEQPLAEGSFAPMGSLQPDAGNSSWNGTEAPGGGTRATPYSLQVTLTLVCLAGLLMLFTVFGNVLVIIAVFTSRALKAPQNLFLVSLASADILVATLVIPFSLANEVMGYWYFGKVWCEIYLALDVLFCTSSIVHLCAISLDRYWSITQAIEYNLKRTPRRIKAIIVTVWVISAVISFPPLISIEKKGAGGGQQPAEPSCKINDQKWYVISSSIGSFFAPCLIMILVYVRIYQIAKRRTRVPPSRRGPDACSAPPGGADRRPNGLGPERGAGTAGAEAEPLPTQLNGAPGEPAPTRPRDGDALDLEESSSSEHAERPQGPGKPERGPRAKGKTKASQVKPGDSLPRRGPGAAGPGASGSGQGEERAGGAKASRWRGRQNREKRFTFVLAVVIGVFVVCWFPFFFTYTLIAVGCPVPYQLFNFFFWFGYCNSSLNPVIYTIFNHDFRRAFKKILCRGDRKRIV

[2] = Binding affinity at rat imidazoline receptor I-2
[3] = biological target: T2, Alpha-2A adrenergic receptor (Rattus norvegicus, UniProt P22909); assay: Binding affinity at alpha-2 adrenergic receptor of rat.
T2 sequence (P22909 whole entry): T1 sequence (P22909 whole entry)

[4] = biological target: 5-hydroxytryptamine receptor 2A (Rattus norvegicus, UniProt P14842); assay: Binding affinity at 5-hydroxytryptamine 2A receptor of rat.
[5] = biological target: T3, Alpha-2B adrenergic receptor (Rattus norvegicus, UniProt P19328); assay: Binding affinity at alpha 2B adrenergic receptor of rat.
T3 sequence (P19328 whole entry): T1 sequence (P19328 whole entry)

Sequence of 5-hydroxytryptamine receptor 2A (P14842 whole entry): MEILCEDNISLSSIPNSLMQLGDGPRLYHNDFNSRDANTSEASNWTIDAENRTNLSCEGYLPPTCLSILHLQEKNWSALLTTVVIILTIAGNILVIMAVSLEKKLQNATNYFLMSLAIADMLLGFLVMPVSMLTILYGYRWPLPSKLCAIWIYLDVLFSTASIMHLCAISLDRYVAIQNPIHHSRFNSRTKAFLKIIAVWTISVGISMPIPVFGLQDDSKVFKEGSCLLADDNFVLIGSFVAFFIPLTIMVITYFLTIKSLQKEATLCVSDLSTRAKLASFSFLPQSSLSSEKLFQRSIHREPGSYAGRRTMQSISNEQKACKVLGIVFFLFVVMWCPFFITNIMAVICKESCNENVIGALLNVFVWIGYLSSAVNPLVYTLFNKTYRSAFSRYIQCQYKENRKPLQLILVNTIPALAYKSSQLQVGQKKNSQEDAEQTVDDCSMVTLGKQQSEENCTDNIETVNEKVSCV

Row | SMILES | Ki [1] [nM] | Ki [2] [nM] | Ki [3] [nM] | Ki [4] [nM] | Ki [5] [nM]
1 | Brc1ccc2[nH]c3c(c2c1)CCN=C3 | 5290 | 790 | – | – | –
2 | COc1ccc2[nH]c3c(c2c1)CCN=C3 | 2190 | 480 | – | – | –
3 | Brc1cccc2c3c([nH]c12)CNCC3 | – | 3.6 | 460 | – | –
4 | COc1cccc2[nH]c3c(c12)CCNC3 | 825 | 300 | – | – | –
5 | Cn1c2c(c3ccccc31)CCNC2 | – | 5.4 | – | – | –
6 | Brc1cccc2[nH]c3c(c12)CCN=C3 | 3160 | 86 | – | 180 | –
7 | Brc1cccc2[nH]c3c(c12)CCNC3 | 390 | 5.4 | – | – | –
8 | C1=NCCc2c1[nH]c1ccccc21 | 700 | 7.3 | – | – | –
9 | c1ccc2c3c([nH]c2c1)CNCC3 [TRYPTOLINE] | – | 9.4 | – | – | –
10 | COc1ccc2c3c([nH]c2c1)C=NCC3 [CGS-19281A] | > 10000 | 18 | – | – | –
11 | COc1cccc2[nH]c3c(c12)CCN=C3 | 330 | 84 | – | – | –
12 | COc1ccc2c(c1)[nH]c1c(C)nccc12 [HARMINE] | – | 49 | – | – | –
13 | Brc1ccc2c3c([nH]c2c1)CNCC3 | 15500 | 1290 | – | – | –
14 | Brc1ccc2[nH]c3c(c2c1)CCNC3 | 11500 | 2780 | – | – | –
15 | COc1ccc2c(c1)[nH]c1cnccc12 | – | 87 | – | – | –
16 | COc1ccc2[nH]c3c(c2c1)CCNC3 | 7830 | 1640 | – | – | –
17 | COc1cc(Br)c2c3c([nH]c2c1)CNCC3 | – | 1740 | – | – | –
18 | Cn1c2c(c3ccccc31)CCNCC2 [PNU-22394] | 415 | 1030 | – | – | –
19 | COc1cccc2c3c([nH]c12)CNCC3 | 640 | 270 | – | – | –
20 | c1ccc2c3c([nH]c2c1)CCNC3 | 600 | 4.7 | – | – | –
21 | COc1ccc2c3c([nH]c2c1)CNCC3 | – | – | – | > 1000 | 140
22 | NCc1c[nH]c2ccccc12 | 14700 | 3440 | – | – | –
23 | NCCc1c[nH]c2ccccc12 [TRYPTAMINE] | 19000 | 5400 | – | – | –
24 | Brc1cccc2c3c([nH]c12)C=NCC3 | 815 | 17 | – | – | –
25 | Brc1ccc2c3c([nH]c2c1)C=NCC3 | 10700 | 400 | – | – | –
26 | COc1cccc2c3c([nH]c12)C=NCC3 | 5020 | 160 | – | – | –
